Patent US20260335398A1, “METHODS FOR TREATING PANCREATIC CANCER WITH A COMBINATION OF DES-METHYL PATEAMINE A AND A CLASS I HDAC INHIBITOR” (Baylor University, priority 2023, published 2026)

How the values were obtained:
KLM and MIA PaCa-2 cells = experiment: Nascent RNA synthesis by EU labeling (FIG. 9B); format: cell-based; details: total 18 h, 5-EU incorporation
Protocol: FIG. 9B left panel compares EU-labeled nascent RNA and (Hoechst counterstain) in KLM cells treated with combination and single agents. Scale bar: 1 μm. FIG. 9B right panels present quantification of fluorescence intensities of nascent RNA synthesis in both KLM and MIA PaCa-2 cell lines. Statistical significance was determined by one-way ANOVA using Tukey multiple comparison's test, ****p value<0.0001, **p value<0.0002, **p value<0.002.
This apparent hypertranscription observed with the combination, was confirmed by the increase in nascent RNA output above the level of normal cells, following treatment for a total of 18 hours (i.e., 6-hour romidepsin followed by 12-hour washout with or without 2 nM DMPatA), quantified using incorporation of the modified RNA precursor 5-EU. […] Because HDAC inhibitors cause histone hyperacetylation and having observed the increase in gene expression following treatment with the combination, the impact of the combination on histone acetylation was assessed.
To detect changes in the global RNA transcription we used the Click-iT RNA Alexa Fluor 594 Imaging Kit (Invitrogen, #C10330). Briefly, cells were cultured in complete media and pulsed for 60 min with alkyne-modified nucleoside, 5-ethynyl uridine (EU) at a final concentration of 1 mM. […]

H3K9ac = experiment: Immunohistochemistry of H3K9ac in MIA PaCa-2 xenograft tumor tissue (FIG. 2C); format: in vivo, athymic nude mice; details: IHC, tumors at end of study
Excerpt: (§1) FIGS. 2A and 2B illustrate the results of a MIA PaCa-2 xenograft model of PDAC in male athymic nude mice. FIG. 2A compares tumor growth (mm^3) in mice treated with the indicated concentrations of combination, romidepsin and DMPatA using IP route and vehicles described in the materials and methods section below. FIG. 2B compares body weight (g) of mice treated with the combination and single agents following treatment. FIGS. 2C and 2D compare quantification of H3K9ac and c-MYC antibodies. Frozen sections from MIA PaCa-2 xenograft tumor tissues were subjected to immunohistochemical analysis using antibodies against H3K9ac, and c-MYC. Fluorescence images were captured using fluorescent microscopy and the fluorescent signal from H3K9ac and c-MYC antibodies were quantified. To quantify fluorescence intensity at least 500 cells per condition were measured for each antibody at 40× magnification. The median of the signal intensity is shown. Statistical significance was determined by one-way ANOVA using Tukey multiple comparisons test, ****p value<0.0001.
Additionally, snap-frozen tumor tissue samples from the mice treated with vehicle, single agents, and the combination were collected at the end of the study. These samples were sectioned, and the levels of H3K9ac and c-MYC proteins in tumor tissues were assessed by immunohistochemistry. […]

[1] = Body weight of xenograft mice (FIG. 2B); format: in vivo, athymic nude mice; details: IP; romidepsin 0.75 mg/kg, DMPatA 0.075 mg/kg
Excerpt: as §1
(§2) Animal studies were performed according to Institutional Animal Care and Use Committee (IACUC) protocol number AC-AABD2601. Following the establishment of initial dose levels for individual drugs, efficacy of the combination and single agents in a MIA PaCa-2 xenograft model was assessed at a tolerable dose and schedule. […]

MIA PaCa-2 xenograft = MIA PaCa-2 xenograft model of PDAC, tumor growth (FIG. 2A); format: in vivo, athymic nude mice; details: IP; romidepsin 0.75 mg/kg, DMPatA 0.075 mg/kg; once every four days 2 weeks, then every seven days 5-6 weeks
Excerpt: as §1, §2

[2] = patients, 4-hour infusion; cited from earlier work

C/C=C1\NC(=O)[C@H]2CSSCC/C=C/[C@H](CC(=O)N[C@H](C(C)C)C(=O)N2)OC(=O)[C@H](C(C)C)NC1=O [romidepsin]
nascent RNA (mRNA) synthesis (KLM and MIA PaCa-2 cells): increase in RNA synthesis | H3K9ac level in tumor (H3K9ac): increased significantly | body weight vs vehicle [1]: neither the single agent nor the combination treatments had a significant impact on weight | tumor volume (MIA PaCa-2 xenograft): regression in tumor volume | half-life [2]: approximately 3.5 hour
